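Protocol summary: plate cells (96-well), add compound at 5 concentrations, incubate 48 h, interpolate endpoints linearly. TGI: concentration producing complete growth inhibition.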
Tests used:
Assay in all cases: growth of human tumour cells (NCI), 48 h
MALME-3M melanoma = test system: MALME-3M melanoma
IGROV1 ovarian = test system: IGROV1 ovarian
SF-295 CNS = test system: SF-295 CNS
A498 renal = test system: A498 renal
UACC-62 melanoma = test system: UACC-62 melanoma
MCF7 breast = test system: MCF7 breast
MDA-MB-435 = test system: MDA-MB-435
TK-10 renal = test system: TK-10 renal
SR leukemia = test system: SR leukemia

| Structure (SMILES) | TGI (MALME-3M melanoma) [µM] | TGI (IGROV1 ovarian) [µM] | TGI (SF-295 CNS) [µM] | TGI (A498 renal) [µM] | TGI (UACC-62 melanoma) [µM] | TGI (MCF7 breast) [µM] | TGI (MDA-MB-435) [µM] | TGI (TK-10 renal) [µM] | TGI (SR leukemia) [µM] |
| --- | --- | --- | --- | --- | --- | --- | --- | --- | --- |
| O=c1/c(=C/c2ccc(-c3ccc(Cl)cc3Cl)o2)sc2n1[C@@H](c1ccc3c(c1)OCO3)C=C(c1cc(F)c(Cl)cc1Cl)N=2 | > 100 | > 100 | > 100 | 6 | > 100 | > 100 | > 100 | 59 |  |
| C=C(C(=O)OC)[C@H]1CC/C(C)=C/CC/C(C)=C/CC[C@@]2(C)O[C@@H]2C1 | 63.3 | 31.5 | 29.6 | 62.2 | 26 | 37.8 | 58.5 | 59 |  |
| CSc1ccccc1P(CCP(c1ccccc1SC)c1ccccc1SC)c1ccccc1SC | > 100 | > 100 | > 95.7 | > 81.7 | > 100 | > 100 | > 100 | > 100 | > 42.6 |
| CC(C)CC(NC(=O)C(COc1ccc([N+](=O)[O-])cc1)Cc1ccccc1)C(=O)Nc1ccccc1 (stereo not drawn) | 18 | 31.2 | 26.2 | 72.2 | 30.9 | > 100 | > 100 | 50.3 | > 100 |
| OC(O)(C(F)(F)F)C(F)(F)F | > 100 | > 100 | > 100 | > 100 | > 100 | > 100 | > 100 | > 100 | > 100 |
| COC(=O)C1[C@H](C(=O)OC)C1(Br)CBr (stereo partly drawn) |  | > 100 | > 100 | > 100 | > 100 | > 100 | > 100 | > 100 | > 100 |
| O=S(=O)(O)c1ccc(Nc2ccnc3cc(Cl)ccc23)cc1 | > 100 | > 100 | > 100 | > 100 | > 100 | > 100 | > 100 | > 100 | > 100 |
| Cc1nn(-c2ccccn2)c2c1C(SC#N)=C(C=O)CC2 | 36.2 | 23.7 | > 100 | 5.57 | 18.3 | 24.2 | 37.7 | 6.03 | 34.3 |
| C[C@@H]1OCC(O)C([C@H]2OC(c3ccccc3)=N[C@H]2CO)O1 (stereo partly drawn) | > 100 | > 100 | > 100 | > 100 | > 100 | > 100 | > 100 | > 100 | > 100 |
| CCOC(=O)C1=C(C)N(c2ccc(C)cc2)C2(O)C=CC(=O)C3=C(O)c4ccccc4C(=O)C312 (stereo not drawn) | 43.1 | 45.5 | > 100 | 67.9 | > 100 | 63 | > 100 | > 100 | 2.6 |
| S=C(Nc1ccc2c(c1)Cc1ccccc1-2)Nc1ccc2c(c1)Cc1ccccc1-2 | > 100 | > 100 | > 100 | > 100 | > 100 | > 100 | > 100 | > 100 |  |
| O=c1c(-c2ccc(O)cc2)coc2cc(O)cc(O)c12 | > 100 | > 100 | > 100 |  | > 100 | > 100 | > 100 | > 100 | > 100 |
| COc1cccc(C2CC(=O)c3cccn32)c1 (stereo not drawn) |  | > 100 | > 100 | > 100 | > 100 | > 100 | > 100 | > 100 | > 100 |
| Oc1ccc2ccccc2c1OCc1nnc(CCCCCCCCc2nnc(COc3c(O)ccc4ccccc34)o2)o1 | > 100 | > 100 | > 100 | > 100 | > 100 | > 100 | > 100 | > 100 |  |
| C[n+]1c(-c2ccc(/C=N/Nc3ccnc(N/N=C/c4ccc(-c5cn6ccccc6[n+]5C)cc4)n3)cc2)cn2ccccc21 |  | > 100 | 79.6 |  |  |  |  | > 100 | > 100 |
| c1ccc(CNc2ncnc3n[nH]nc23)cc1 | > 100 | > 100 | > 100 | > 100 | > 100 | > 100 | > 100 | > 100 |  |
| O=C(/C=C/c1ccccc1)CCc1c(O)c2ccccc2oc1=O | > 100 | > 100 | > 100 | > 100 | > 100 | > 100 | > 100 |  |  |
| C=CCn1c(=O)c2ccccc2[n+]2c(-c3cccc([N+](=O)[O-])c3)csc12 | > 100 | > 100 | > 100 | > 100 | > 100 | > 100 | > 100 | > 100 | 98.3 |
| CCOC(=O)c1cn(C)nc1N/C(C)=C\C(=O)c1ccccc1 | > 100 | > 100 | > 100 |  | > 100 | > 100 | > 100 | > 100 | > 100 |
| CN(C)C=Nc1nncc2n[nH]nc12 |  | > 100 | > 100 | > 100 | > 100 | > 100 | > 100 | > 100 | > 100 |
| CCC1CCC2c3c([nH]c4ccccc34)C3C(=O)N(c4ccc(OC)cc4)C(=O)C3C2C1 (stereo not drawn) |  | > 100 | 68.1 |  | > 100 | > 100 | > 100 | 85.8 | 32.1 |
| C/C(=C\CNc1nc(Cl)nc2nc[nH]c12)CO | > 100 | > 100 | > 100 | > 100 | > 100 | > 100 | > 100 | > 100 | > 100 |
| CN(CCN(C)C(=O)CCn1ccc(=O)[nH]c1=O)C(=O)CCn1ccc(=O)[nH]c1=O | > 100 | > 100 | > 100 |  | > 100 |  |  | > 100 | > 100 |
| O=C(NCc1ccccc1)c1c(O)c2ccccc2[nH]c1=O | > 100 | > 100 | > 100 | > 100 |  | > 100 | > 100 | > 100 | > 100 |

— PubChem BioAssay (NCI)
